Results published in the supplement of paper PMC10307832.

Experiments:
Assay in all cases: relative viability (nuclei count vs DMSO), 5 days (fraction); higher = more cells survive
[1] = tested on: 201T
Outline: (§1)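 For relative viability, nuclei counts in treated wells were divided by those in vehicle wells. Lung cancer cell lines had been pin-tool dosed in 1536-well plates the day after seeding and cultured for 5 days, then fixed and stained in one step (final 0.05% Triton X-100, 1% formaldehyde, 1 ug/ml Hoechst) and imaged at 4×. Doses were one drug alone or a fixed anchor-drug dose plus five library-drug doses (not always all listed) in √10 steps, and values are duplicate-plate medians.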

[2] = tested on: BEN
Outline: as §1

[3] = tested on: EMC-BAC-2
Outline: as §1

[4] = tested on: HARA
Outline: as §1

[5] = tested on: LCLC-103H
Outline: as §1

[6] = tested on: LOU-NH91
Outline: as §1

[7] = tested on: NCI-H1395
Outline: as §1

[8] = tested on: NCI-H1666
Outline: as §1

[9] = tested on: NCI-H1993
Outline: as §1

[10] = tested on: NCI-H2009
Outline: as §1

[11] = tested on: NCI-H2023
Outline: as §1

[12] = tested on: NCI-H2087
Outline: as §1

[13] = tested on: NCI-H2126
Outline: as §1

[14] = tested on: NCI-H2347
Outline: as §1

[15] = tested on: NCI-H23
Outline: as §1

[16] = tested on: NCI-H3122
Outline: as §1

[17] = tested on: NCI-H441
Outline: as §1

[18] = tested on: NCI-H596
Outline: as §1

[19] = tested on: NCI-H647
Outline: as §1

[20] = tested on: NCI-H650
Outline: as §1

[21] = tested on: NCI-H727
Outline: as §1

[22] = tested on: NCI-H838
Outline: as §1

For `CC1(C)CCC(c2ccc(Cl)cc2)=C(CN2CCN(c3ccc(C(=O)NS(=O)(=O)c4ccc(N[C@H](CCN5CCOCC5)CSc5ccccc5)c(S(=O)(=O)C(F)(F)F)c4)cc3)CC2)C1` [Navitoclax] + COc1cc2c(Oc3ccc(NC(=O)C4(C(=O)Nc5ccc(F)cc5)CC4)cc3F)ccnc2cc1OCCCN1CCOCC1 [Foretinib] (partner 0.25 µM), the relative viability ([1]; first compound 0.005 µM) was 1.2, the relative viability ([1]; first compound 0.01581 µM) was 1.43 and the relative viability ([1]; first compound 0.05 µM) was 1.06. For the same molecule, the relative viability ([1]; first compound 0.1581 µM) was 1.12, the relative viability ([1]; first compound 0.5 µM) was 1.03 and the relative viability ([2]; first compound 0.005 µM) was 0.69. The relative viability ([2]; first compound 0.01581 µM) was 0.664, the relative viability ([2]; first compound 0.05 µM) was 0.604 and the relative viability ([2]; first compound 0.1581 µM) was 0.719. It also gave a relative viability ([2]; first compound 0.5 µM) of 0.114, a relative viability ([3]; first compound 0.005 µM) of 1.07 and a relative viability ([3]; first compound 0.01581 µM) of 1.14. It also gave a relative viability ([3]; first compound 0.05 µM) of 0.96, a relative viability ([3]; first compound 0.1581 µM) of 1.01 and a relative viability ([3]; first compound 0.5 µM) of 1.05. It also gave a relative viability ([4]; first compound 0.005 µM) of 0.923, a relative viability ([4]; first compound 0.01581 µM) of 1.05 and a relative viability ([4]; first compound 0.1581 µM) of 0.877. The relative viability ([4]; first compound 0.5 µM) was 0.863, the relative viability ([5]; first compound 0.005 µM) was 0.676 and the relative viability ([5]; first compound 0.01581 µM) was 0.934. It also gave a relative viability ([5]; first compound 0.05 µM) of 0.973, a relative viability ([5]; first compound 0.1581 µM) of 0.832 and a relative viability ([5]; first compound 0.5 µM) of 0.81. It also gave a relative viability ([6]; first compound 0.005 µM) of 0.955, a relative viability ([6]; first compound 0.01581 µM) of 0.932 and a relative viability ([6]; first compound 0.05 µM) of 0.941. The relative viability ([6]; first compound 0.1581 µM) was 0.911, the relative viability ([6]; first compound 0.5 µM) was 0.824 and the relative viability ([7]; first compound 0.005 µM) was 1.15. The relative viability ([7]; first compound 0.01581 µM) was 1.19, the relative viability ([7]; first compound 0.05 µM) was 0.865 and the relative viability ([7]; first compound 0.1581 µM) was 0.986. The relative viability ([7]; first compound 0.5 µM) was 1.12, the relative viability ([8]; first compound 0.005 µM) was 0.941 and the relative viability ([8]; first compound 0.01581 µM) was 1.04. The relative viability ([8]; first compound 0.05 µM) was 0.965, the relative viability ([8]; first compound 0.1581 µM) was 0.998 and the relative viability ([8]; first compound 0.5 µM) was 0.964. The relative viability ([9]; first compound 0.005 µM) was 0.854, the relative viability ([9]; first compound 0.01581 µM) was 0.938 and the relative viability ([9]; first compound 0.05 µM) was 0.687. For the same molecule, the relative viability ([9]; first compound 0.1581 µM) was 0.839, the relative viability ([9]; first compound 0.5 µM) was 0.862 and the relative viability ([10]; first compound 0.005 µM) was 1.22. The relative viability ([10]; first compound 0.01581 µM) was 1.29, the relative viability ([10]; first compound 0.05 µM) was 1.26 and the relative viability ([10]; first compound 0.1581 µM) was 1.26. For the same molecule, the relative viability ([10]; first compound 0.5 µM) was 1.27, the relative viability ([11]; first compound 0.005 µM) was 0.912 and the relative viability ([11]; first compound 0.01581 µM) was 1.12. The relative viability ([11]; first compound 0.05 µM) was 0.819, the relative viability ([11]; first compound 0.1581 µM) was 0.848 and the relative viability ([11]; first compound 0.5 µM) was 0.995. The relative viability ([12]; first compound 0.005 µM) was 1.07, the relative viability ([12]; first compound 0.01581 µM) was 1.08 and the relative viability ([12]; first compound 0.1581 µM) was 0.953. It also gave a relative viability ([12]; first compound 0.5 µM) of 1.07, a relative viability ([13]; first compound 0.005 µM) of 1.25 and a relative viability ([13]; first compound 0.01581 µM) of 1.17. The relative viability ([13]; first compound 0.1581 µM) was 1.14, the relative viability ([13]; first compound 0.5 µM) was 1.19 and the relative viability ([14]; first compound 0.005 µM) was 1.42. For the same molecule, the relative viability ([14]; first compound 0.05 µM) was 0.652, the relative viability ([14]; first compound 0.1581 µM) was 0.665 and the relative viability ([14]; first compound 0.5 µM) was 0.913. The relative viability ([15]; first compound 0.005 µM) was 1.04, the relative viability ([15]; first compound 0.01581 µM) was 1.1 and the relative viability ([15]; first compound 0.05 µM) was 1.08. For the same molecule, the relative viability ([15]; first compound 0.1581 µM) was 0.768, the relative viability ([15]; first compound 0.5 µM) was 0.882 and the relative viability ([16]; first compound 0.005 µM) was 0.936. It also gave a relative viability ([16]; first compound 0.01581 µM) of 1.04, a relative viability ([16]; first compound 0.05 µM) of 0.964 and a relative viability ([16]; first compound 0.1581 µM) of 0.934. For the same molecule, the relative viability ([16]; first compound 0.5 µM) was 0.966, the relative viability ([17]; first compound 0.005 µM) was 0.958 and the relative viability ([17]; first compound 0.01581 µM) was 1.05. For the same molecule, the relative viability ([17]; first compound 0.05 µM) was 1.05, the relative viability ([17]; first compound 0.1581 µM) was 0.945 and the relative viability ([17]; first compound 0.5 µM) was 0.948. For the same molecule, the relative viability ([18]; first compound 0.005 µM) was 1.08, the relative viability ([18]; first compound 0.01581 µM) was 0.853 and the relative viability ([18]; first compound 0.1581 µM) was 0.839. The relative viability ([18]; first compound 0.5 µM) was 0.917, the relative viability ([19]; first compound 0.005 µM) was 1.22 and the relative viability ([19]; first compound 0.01581 µM) was 1.38. The relative viability ([19]; first compound 0.05 µM) was 1.27, the relative viability ([19]; first compound 0.1581 µM) was 1.24 and the relative viability ([19]; first compound 0.5 µM) was 1.27. For the same molecule, the relative viability ([20]; first compound 0.005 µM) was 1.05, the relative viability ([20]; first compound 0.01581 µM) was 1.15 and the relative viability ([20]; first compound 0.05 µM) was 1. It also gave a relative viability ([20]; first compound 0.1581 µM) of 1.04, a relative viability ([20]; first compound 0.5 µM) of 1.07 and a relative viability ([21]; first compound 0.005 µM) of 1.12. For the same molecule, the relative viability ([21]; first compound 0.01581 µM) was 0.902, the relative viability ([21]; first compound 0.1581 µM) was 0.829 and the relative viability ([21]; first compound 0.5 µM) was 0.858. It also gave a relative viability ([22]; first compound 0.005 µM) of 0.976, a relative viability ([22]; first compound 0.01581 µM) of 1.09 and a relative viability ([22]; first compound 0.05 µM) of 1.19. For the same molecule, the relative viability ([22]; first compound 0.1581 µM) was 1.01 and the relative viability ([22]; first compound 0.5 µM) was 1.03.
